Results published in doi:10.1101/2025.02.17.637997, “Phosphorylation-State Modulated Binding of HSP70: Structural Insights and Compensatory Protein Engineering” (bioRxiv, 2025).

Experiments:
Assay type in all cases: binding
CHIP-G132N = molecular target: T1, CHIP-G132N (Homo sapiens, UniProt Q9UNE7, G132N); experiment: Biolayer interferometry, CHIP-G132N TPR; details: BLI; kon; CHIP-G132N TPR towards pEEVD; Fig. S2
T1 construct: Recombinant CHIP-TPR constructs were recombinantly expressed using the pHis//2 CHIP-TPR (21–154) plasmid; His; made in house
T1 sequence (Q9UNE7 21-154 G132N): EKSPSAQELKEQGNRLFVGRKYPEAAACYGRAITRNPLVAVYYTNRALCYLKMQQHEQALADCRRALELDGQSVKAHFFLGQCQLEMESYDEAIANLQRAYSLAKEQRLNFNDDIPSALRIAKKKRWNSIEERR
Procedure: Bio-layer interferometry measured peptide binding using a BLItz instrument (FortéBio, Sartorius) with streptavidin (SA) sensors. Biotin-EEVD and biotin-pEEVD were solubilized in 20 mM HEPES, 150 mM NaCl, pH 7.0. Affinity measurements were made using the advanced kinetic protocol within the BLItz Pro system software. Biosensors were hydrated for ten minutes in assay buffer comprising 20 mM HEPES, 150 mM NaCl, 5 mM β-mercaptoethanol, pH 7.2. For each affinity measurement, a new, hydrated biosensor was placed on the BLItz tip, and the “Initial Baseline” step was completed by incubation for 30 seconds in 500 μl assay buffer in an opaque black microcentrifuge tube (Argos Technologies). Peptides were loaded during the “Loading Step” by incubating the tip in 4 μl of either peptide for 60 seconds. The “Baseline step” was then conducted by incubation for 30 seconds in 500 μl assay buffer in an opaque black microcentrifuge tube. The “Association step” was performed by incubating the tip in 4 μl of the appropriate TPR protein construct, at protein concentrations of 1 to 25 μM, in assay buffer in an opaque black microcentrifuge tube for 120 seconds. […] Affinities (Kd) were calculated by the BLItz Pro software as Kd=koff/kon, where koff and kon were determined by individual fits to the “dissociation step” and “association step,” respectively, for each run.

CHIP-WT or CHIP-G132N = experiment: Fluorescence polarization, phosphorylated vs unmodified EEVD peptide; details: FP, CHIP-WT or CHIP-G132N (Fig. 2B)
Text: (§1) A complete list of vectors is listed in Table S1 and deposited at Addgene (pending ID). Plasmids were maintained and propagated in DH5-alpha E. coli and purified using the Miniprep plasmid kit (Qiagen) or Quantum Prep® Plasmid Midiprep Kit (Bio-Rad). We used the Q5 Site-Directed Mutagenesis Kit (NEB) or […] II XL (NC9045762, Agilent Technologies) site-directed mutagenesis kit for editing plasmids and validated via DNA sequencing. Lifetein or Genscript synthesized the peptides used in the study. […] The amino-terminal biotin-labeled HSP70 tail peptide (biotin-[…], termed as biotin-EEVD) and the amino-terminal biotin-labeled pT-HSP70 tail peptide (biotin-GSGSGP(pT)IEEVD, termed as biotin-pEEVD) were purchased (Lifetein). The peptides used for fluorescent polarization were N-FITC-Ahx-[…] (EEVD) or N-FITC-Ahx-GSGP(pT)IEEVD (pEEVD). Recombinant CHIP-TPR constructs were recombinantly expressed using the pHis//2 CHIP-TPR (21–154) plasmid and purified as previously described ([21]) and additional CHIP proteins were purified as previously described ([22]).
The N-terminally-labelled peptides were loaded into PCR reaction tubes at 2X (40 nM), with the final concentration being 20 nM. Recombinant CHIP constructs were added into the tubes at the indicated concentrations. […] The polarization reads were normalized to the dilution buffer. […]

[1] = molecular target: T2, CHIP TPR (residues 21–154) (Homo sapiens, UniProt Q9UNE7); experiment: Biolayer interferometry, CHIP TPR (21-154); details: BLI; pEEVD vs EEVD; Fig. 2E
T2 construct: the extended TPR domain of CHIP (residues 21–154) using BLI; His; made in house
Text: as §1
Bio-layer interferometry measured peptide binding using a BLItz instrument (FortéBio, Sartorius) with streptavidin (SA) sensors. […] Affinities (Kd) were calculated by the BLItz Pro software as Kd=koff/kon, where koff and kon were determined by individual fits to the “dissociation step” and “association step,” respectively, for each run.

T2 sequence (Q9UNE7 21-154): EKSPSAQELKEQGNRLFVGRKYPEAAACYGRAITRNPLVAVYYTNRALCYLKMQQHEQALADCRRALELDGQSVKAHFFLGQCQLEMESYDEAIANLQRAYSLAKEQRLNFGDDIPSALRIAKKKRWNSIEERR

N-FITC-Ahx-GSGP(pT)IEEVD [pEEVD, phosphorylated HSP70 tail peptide used for fluorescent polarization]
association rate (CHIP-G132N): higher association rates
decrease in interaction compared to the unmodified threonine (CHIP-WT or CHIP-G132N): 6–10 fold
decrease in binding affinity of CHIP TPR towards the phosphorylated EEVD tail [1]: ~10 fold
